“Also recorded” adds a separate entry of the source.
Key:
[1] = system: dark-bleached Chlamydomonas reinhardi mutant y-1; assay: Light-Induced Greening Inhibition Test; format: cell-based; conditions: compounds ionized in water, operative ion negatively charged
Method: Another test of the capacity of a material for disrupting the plasmalemma of plant material is the Light-Induced Greening Inhibition Test described more particularly in Appendix B below.
Stock Cultures of y-1 cells are maintained axenically in liquid culture on Medium A or M, preferably on Medium M, in a 14/10 hour light/dark cycle at 25° C. in Erlenmeyer flasks which are stoppered with polyurethane plugs. The stock cultures are incubated without supplemental aeration on rotary shakers at 125 rpm. The light intensity at the culture level is 120 μE m^-2 sec^-1 (PAR). Under these conditions the cultures are in a semi-synchronous mode of growth until they reach a stationary phase of 2-4×10^6 cells/mL.
Cells from the stationary phase of stock cultures grown in the presence of light (7.5 mL) are transferred to 750 mL of Medium A in an Erlenmeyer flask. […]
An aqueous, 10% sodium dodecyl sulfate solution (250 μL) and methanol (1 mL) is added to each test well and is mixed thoroughly. […] The supernatants are removed and analyzed in a Beckman Model 35 spectrophotometer between 350 nm and 500 nm for the presence of protophorphrin IX, at 668 nm which is the absorption peak of chlorophyll in this solvent system, and at 720 nm to use as a turbidity background reading.
For each well a greenness value is obtained by subtracting the 720 nm reading from the 668 nm reading. […]

chondrosarcoma = assay: Photodynamic treatment of chondrosarcoma in rats fed the agent (Example 9); format: in vivo, Sprague-Dawley rats
Method: Specifically, three Sprague-Dawley rats of average weight 120 g were placed on a diet of feed containing 2000 ppm of the agent for a period of 6 days. On day 3, chondrosarcoma was implanted into the right hind limb of each rat by injecting 0.3 mL of a suspension of the tumor cells (about one million tumor cells). On day 6 the right hind limb of each rat was shaven and depilated, the size of each tumor was measured, and the tumor area and surrounding skin were then exposed to non-thermal doses of 630 nm light for a total of 270 J/cm^2.
In another set of experiments, 20 of the rats were placed on the same diet as above (i.e. feed containing 2000 ppm of agent), provided ad libitum, for 10 days before the treatment with the light, and the injection of the tumor cell suspension was made after the animals had been on the diet for 7 days. Such an injection causes the formation of a tumor having a well defined vascular network within 1 to 2 days. At the time of the treatment with light the tumors had diameters of 5-8 mm and were free of evident necrosis.

[2] = LD50, single oral dose, rats; conditions: rat, in vivo, single oral dose in corn oil containing 15% of the agent, 14-day period
male Fisher 344 rat = assay: Proto IX levels in tissues of rat fed agent for 27 days; format: in vivo; conditions: feed containing 5000 ppm for 27 days
Text: In another test, a male Fisher 344 rat was fed for 27 days with feed containing 5000 ppm of agent 6c and then sacrificed.
In the foregoing tests of rats and mice the animals were kept on a standard 12 hr. dark-12 hr. light cycle.

[3] = 20 rats, 2000 ppm in feed for 10 days

Cc1nn(-c2cc(NS(C)(=O)=O)c(Cl)cc2Cl)c(=O)n1C(F)F [Agent 6c]
response in light-greening inhibition test [1]: do not respond well in this test | tumors that regrew over time (chondrosarcoma; [3]): ~95% | tumors with visible regression on the day following the light treatment (chondrosarcoma; [3]): 75% | effect on surrounding skin and muscle tissue (chondrosarcoma; 2000 ppm in feed for 6 days, 630 nm light 270 J/cm^2): slightly blanched and showed some swelling | occlusion of blood flow to the treatment area (chondrosarcoma; sodium fluoroscin injection immediately after exposure to light): did not cause apparent occlusion of blood flow | tumor regression on the day after light treatment (chondrosarcoma; three rats, 2000 ppm in feed for 6 days, 630 nm light 270 J/cm^2): two of the rats were found to be apparently free of their tumors; also recorded: the third rat showed almost complete regression of its tumor | LD50 at 336 h [2]: > 2600 mg/kg | Proto IX level in muscle tissue (male Fisher 344 rat): only a small increase | Proto IX levels in kidney, intestine, stomach and brain (male Fisher 344 rat): marked increases | Proto IX levels in tissues as compared to a control (male Fisher 344 rat): increased levels of Proto IX as compared to a control
